Conditions: Liquid

CCCCCOC(C)=O [pentyl ethanoate]
Conditions	mass density [kg/m3]
298.15 K, 100 kPa	871.4
298.15 K, 1000 kPa	871.9
298.15 K, 2000 kPa	872.7
298.15 K, 2700 kPa	873.3
298.15 K, 3000 kPa	873.5
298.15 K, 5000 kPa	875.3
298.15 K, 10000 kPa	879.1
298.15 K, 15000 kPa	882.7
298.15 K, 20000 kPa	886.2
298.15 K, 25000 kPa	889.6
298.15 K, 30000 kPa	893.6
298.15 K, 35000 kPa	897.9
303.15 K, 100 kPa	866.5
303.15 K, 1000 kPa	867.1
303.15 K, 2000 kPa	867.9
303.15 K, 2700 kPa	868.5
303.15 K, 3000 kPa	868.7
303.15 K, 5000 kPa	870.5
303.15 K, 10000 kPa	874.4
303.15 K, 15000 kPa	878.1
303.15 K, 20000 kPa	881.6
303.15 K, 25000 kPa	885.1
303.15 K, 30000 kPa	889.4
303.15 K, 35000 kPa	893.8
308.15 K, 100 kPa	861.6
308.15 K, 1000 kPa	862.2
308.15 K, 2000 kPa	863.1
308.15 K, 2700 kPa	863.7
308.15 K, 3000 kPa	863.9
308.15 K, 5000 kPa	865.8
308.15 K, 10000 kPa	869.8
308.15 K, 15000 kPa	873.6
308.15 K, 20000 kPa	877.3
308.15 K, 25000 kPa	880.8
308.15 K, 30000 kPa	885.2
308.15 K, 35000 kPa	889.7
313.15 K, 100 kPa	856.7
313.15 K, 1000 kPa	857.4
313.15 K, 2000 kPa	858.3
313.15 K, 2700 kPa	858.9
313.15 K, 3000 kPa	859.2
313.15 K, 5000 kPa	861
313.15 K, 10000 kPa	865.2
313.15 K, 15000 kPa	869
313.15 K, 20000 kPa	872.8
313.15 K, 25000 kPa	876.4
313.15 K, 30000 kPa	880.9
313.15 K, 35000 kPa	885.5
318.15 K, 100 kPa	851.9
318.15 K, 1000 kPa	852.6
318.15 K, 2000 kPa	853.5
318.15 K, 2700 kPa	854.2
318.15 K, 3000 kPa	854.4
318.15 K, 5000 kPa	856.4
318.15 K, 10000 kPa	860.7
318.15 K, 15000 kPa	864.7
318.15 K, 20000 kPa	868.5
318.15 K, 25000 kPa	872.3
318.15 K, 30000 kPa	876.9
318.15 K, 35000 kPa	881.7
323.15 K, 100 kPa	847.1
323.15 K, 1000 kPa	847.7
323.15 K, 2000 kPa	848.7
323.15 K, 2700 kPa	849.3
323.15 K, 3000 kPa	849.6
323.15 K, 5000 kPa	851.7
323.15 K, 10000 kPa	856.1
323.15 K, 15000 kPa	860.2
323.15 K, 20000 kPa	864.2
323.15 K, 25000 kPa	868.1
323.15 K, 30000 kPa	872.8
323.15 K, 35000 kPa	877.6
328.15 K, 100 kPa	842.3
328.15 K, 1000 kPa	843.2
328.15 K, 2000 kPa	844.4
328.15 K, 2700 kPa	845.2
328.15 K, 3000 kPa	845.5
328.15 K, 5000 kPa	847.1
328.15 K, 10000 kPa	851.6
328.15 K, 15000 kPa	855.9
328.15 K, 20000 kPa	860
328.15 K, 25000 kPa	864.1
328.15 K, 30000 kPa	869
328.15 K, 35000 kPa	874
333.15 K, 100 kPa	837.8
333.15 K, 1000 kPa	838.7
333.15 K, 2000 kPa	839.8
333.15 K, 2700 kPa	840.5
333.15 K, 3000 kPa	840.8
333.15 K, 5000 kPa	842.7
333.15 K, 10000 kPa	847.4
333.15 K, 15000 kPa	851.8
333.15 K, 20000 kPa	856
333.15 K, 25000 kPa	860.1
333.15 K, 30000 kPa	865.1
333.15 K, 35000 kPa	870.2
338.15 K, 100 kPa	832.9
338.15 K, 1000 kPa	834
338.15 K, 2000 kPa	835.1
338.15 K, 2700 kPa	835.8
338.15 K, 3000 kPa	836.1
338.15 K, 5000 kPa	838.1
338.15 K, 10000 kPa	842.9
338.15 K, 15000 kPa	847.5
338.15 K, 20000 kPa	851.9
338.15 K, 25000 kPa	856.2
338.15 K, 30000 kPa	861.3
338.15 K, 35000 kPa	866.5
343.15 K, 100 kPa	828.3
343.15 K, 1000 kPa	829.3
343.15 K, 2000 kPa	830.4
343.15 K, 2700 kPa	831.2
343.15 K, 3000 kPa	831.5
343.15 K, 5000 kPa	833.5
343.15 K, 10000 kPa	838.5
343.15 K, 15000 kPa	843.2
343.15 K, 20000 kPa	847.7
343.15 K, 25000 kPa	852.1
343.15 K, 30000 kPa	857.3
343.15 K, 35000 kPa	862.7
348.15 K, 100 kPa	823.2
348.15 K, 1000 kPa	824.6
348.15 K, 2000 kPa	825.7
348.15 K, 2700 kPa	826.5
348.15 K, 3000 kPa	826.9
348.15 K, 5000 kPa	828.8
348.15 K, 10000 kPa	834
348.15 K, 15000 kPa	838.9
348.15 K, 20000 kPa	843.5
348.15 K, 25000 kPa	847.9
348.15 K, 30000 kPa	853.3
348.15 K, 35000 kPa	858.8
353.15 K, 100 kPa	818.7
353.15 K, 1000 kPa	819.9
353.15 K, 2000 kPa	821.1
353.15 K, 2700 kPa	821.9
353.15 K, 3000 kPa	822.3
353.15 K, 5000 kPa	824.4
353.15 K, 10000 kPa	829.8
353.15 K, 15000 kPa	835
353.15 K, 20000 kPa	839.7
353.15 K, 25000 kPa	844.3
353.15 K, 30000 kPa	849.8
353.15 K, 35000 kPa	855.4
358.15 K, 100 kPa	811.3
358.15 K, 1000 kPa	812.2
358.15 K, 2000 kPa	813.4
358.15 K, 2700 kPa	814.1
358.15 K, 3000 kPa	814.5
358.15 K, 5000 kPa	816.9
358.15 K, 10000 kPa	822.5
358.15 K, 15000 kPa	827.7
358.15 K, 20000 kPa	832.5
358.15 K, 25000 kPa	838
358.15 K, 30000 kPa	843.9
358.15 K, 35000 kPa	849.7
363.15 K, 100 kPa	806.3
363.15 K, 1000 kPa	807.4
363.15 K, 2000 kPa	808.7
363.15 K, 2700 kPa	809.6
363.15 K, 3000 kPa	809.9
363.15 K, 5000 kPa	812.4
363.15 K, 10000 kPa	818.1
363.15 K, 15000 kPa	823.4
363.15 K, 20000 kPa	828.3
363.15 K, 25000 kPa	833.9
363.15 K, 30000 kPa	839.9
363.15 K, 35000 kPa	845.6
368.15 K, 100 kPa	801.2
368.15 K, 1000 kPa	802.3
368.15 K, 2000 kPa	803.7
368.15 K, 2700 kPa	804.6
368.15 K, 3000 kPa	805
368.15 K, 5000 kPa	807.5
368.15 K, 10000 kPa	813.4
368.15 K, 15000 kPa	818.8
368.15 K, 20000 kPa	824
368.15 K, 25000 kPa	829.8
368.15 K, 30000 kPa	835.9
368.15 K, 35000 kPa	841.4
373.15 K, 100 kPa	795.5
373.15 K, 1000 kPa	796.4
373.15 K, 2000 kPa	797.7
373.15 K, 2700 kPa	799.5
373.15 K, 3000 kPa	799
373.15 K, 5000 kPa	802.5
373.15 K, 10000 kPa	808.2
373.15 K, 15000 kPa	813.9
373.15 K, 20000 kPa	819.8
373.15 K, 25000 kPa	826.3
373.15 K, 30000 kPa	831.3
378.15 K, 100 kPa	790.4
378.15 K, 1000 kPa	791.6
378.15 K, 2000 kPa	793.1
378.15 K, 2700 kPa	794
378.15 K, 3000 kPa	794.4
378.15 K, 5000 kPa	797.1
378.15 K, 10000 kPa	803.5
383.15 K, 100 kPa	786.8
383.15 K, 1000 kPa	788.1
383.15 K, 2000 kPa	789.6
383.15 K, 2700 kPa	790.7
383.15 K, 3000 kPa	791.1
383.15 K, 5000 kPa	793.9
383.15 K, 10000 kPa	800.5
383.15 K, 15000 kPa	806.6
383.15 K, 20000 kPa	811.7
383.15 K, 25000 kPa	816.5
383.15 K, 30000 kPa	824
383.15 K, 35000 kPa	830
388.15 K, 100 kPa	781.9
388.15 K, 1000 kPa	783.4
388.15 K, 2000 kPa	785
388.15 K, 2700 kPa	786
388.15 K, 3000 kPa	786.5
388.15 K, 5000 kPa	789.4
388.15 K, 10000 kPa	796.3
388.15 K, 15000 kPa	802.5
388.15 K, 20000 kPa	808.1
388.15 K, 25000 kPa	813.7
388.15 K, 30000 kPa	819.7
388.15 K, 35000 kPa	826.2
393.15 K, 100 kPa	777.2
393.15 K, 1000 kPa	778.7
393.15 K, 2000 kPa	780.3
393.15 K, 2700 kPa	781.4
393.15 K, 3000 kPa	781.9
393.15 K, 5000 kPa	784.9
393.15 K, 10000 kPa	791.9
393.15 K, 15000 kPa	798.4
393.15 K, 20000 kPa	803.9
393.15 K, 25000 kPa	809.7
393.15 K, 30000 kPa	815.7
393.15 K, 35000 kPa	822.2

Reference: the NIST ThermoML archive (doi:10.1021/je060339m)
